Source: article PMC10285648, “iTAG an optimized IMiD-induced degron for targeted protein degradation in human and murine cells” (iScience, 2023)

Key:
cMYC-EGFP-DCD19 = test: Flow cytometry of EGFP signal, cMYC-EGFP-DCD19 in HMEC; assay type: cell-based, human; conditions: 10uM, 4h
Excerpt: To systematically delineate the optimal DCD/degrader combination for targeted protein degradation, we undertook a matrix approach evaluating all 23 DCD tags against 6 small molecule degraders. […] To control for any potential off-target effects of the IMiD/CeLMOD agents that could indirectly affect the target of interest, we designed controls in which the specific DCD and the EGFP sequences were interspaced by a P2A ribosomal “skipping” sequence,[32] leading to separate translation of the DCD and the target protein (Figure 1A). These constructs were then inserted into a doxycycline-inducible lentiviral vector system and stably expressed in hTERT immortalized human mammary epithelial cells (HMEC), a suitable model to assess the functional consequences of cMYC degradation. cMYC was tagged at the C-terminus end for the initial screening experiments.
Figure 1 Design and experimental evaluation of the DCD tags (A) Representation of the experimental pipeline used to evaluate the different DCD constructs. […] Median EGFP intensity was measured in each condition using flow cytometry (3 independent experiments, normalized to the control and represented as mean ± SD). […] The protein lysates were probed for cMYC levels using western blotting. […] Target loss was evaluated either by measuring EGFP median intensity using flow cytometry or western blotting for cMYC protein (3 independent experiments, normalized to the control and represented as mean ± SD). […] Target loss was evaluated as in (D) (3 independent experiments, normalized to the control and represented as mean ± SD). […] Protein lysates were collected and probed for cMYC and p21 using western blotting. […] Protein lysates were collected and probed for cMYC and p21 using western blotting. […] These were left out as controls with no test substance.
Following degrader treatment cells were collected and DAPI was added to the cell suspension at 1 μg/mL to allow the exclusion of dead cells. EGFP signal was measured using BD LSR II flow cytometer (BD Biosciences). FlowJo 10 Software (FlowJo) was used for data processing.

[1] = system: RBM39, CDK9, MAPK9, HPRT1, SMS, MAVS (tagged); test: Western blotting, iTAG versus dTAG at 24h on six targets in SUM159; assay type: cell-based, human; conditions: SUM159, 24h
Experimental: Subsequently, we evaluated the extent of degradation induced by the two tagging systems. For this purpose, we tested targets present in different subcellular localizations at a longer time point (24h): RBM39 (-nuclear 59.3kDa-), CDK9 (Cyclin-dependent kinase 9 -nuclear 42.7kDa-), MAPK9 (Mitogen-activated protein kinase 9 -nuclear 48.1 kDa-), HPRT1 (Hypoxanthine Phosphoribosyltransferase 1-cytoplasmic 24.5kDa-), SMS (Spermine synthase –cytoplasmic 41.2kDa-), and MAVS (Mitochondrial antiviral-signaling protein -mitochondrial 56.5kDa-) (Figure S7).

DCD23-EGFP-KRAS^[G12V] = test: Western blotting for KRAS G12V and p-MEK1(T292) in HMEC; assay type: cell-based, human; conditions: 10uM, 48h
Experimental: Figure 2 Degradation of cytoplasmic and nuclear targets using iTAG (A) HMEC cells expressing N-terminally tagged DCD23-EGFP-KRAS^[G12V], DCD23-EGFP-EZH2, DCD23-EGFP-cMYC or their corresponding P2A control were induced with doxycycline for 24h then treated with either DMSO or the different indicated drugs at a concentration of 10uM for 4h. Median EGFP intensity was measured in each condition using flow cytometry and normalized values were represent in the Log2 Fold change relative to the DMSO control. (B) HMEC cells expressing Dox inducible C-terminally tagged KRAS^[G12V]-EGFP-DCD23, EZH2-EGFP-DCD23 or their corresponding P2A control were induced with doxycycline for 24h then treated with either DMSO or the different indicated drugs at a concentration of 10uM for 4h. Median EGFP intensity was measured in each condition using flow cytometry and normalized values were represent in the Log2 Fold Change relative to the DMSO control. […]
We then analyzed the functional consequences of KRAS^[G12V]-induced degradation. […] Subsequently, we analyzed the functional consequences of KRAS^[G12V]-induced degradation. […]
Cells were lysed with SDS lysis buffer (2% SDS, 10% Glycerol, 50mM Tris pH 6.8) and boiled at 95°C for 30min. Protein concentration was measured using Pierce BCA Protein Assay Kit (ThermoFischer) following manufacturer’s recommendations. […]

FLuc-EGFP-DCD23 = test: In vitro luciferase and EGFP signal in MDA-MB-231 (FLuc-EGFP-DCD23); assay type: cell-based, human; conditions: MDA-MB-231, in vitro
[2] = Plasma CC220 level in tumor-bearing mice; assay type: in vivo; conditions: mouse, 30 mg/kg oral, 24h post administration

time to decrease in luciferase and EGFP signal (FLuc-EGFP-DCD23): ≤ 3 h | residual plasma level [2]: nanomolar range
Compound: O=C1CC[C@H](N2Cc3c(OCc4ccc(CN5CCOCC5)cc4)cccc3C2=O)C(=O)N1 [CC220, Iberdomide]
loss of cMYC-EGFP signal (cMYC-EGFP-DCD19): robust loss of cMYC-EGFP signal | degradation compared with dTAG [1]: more effective degradation of the targets even at low nanomolar CC220 concentrations | MEK1 (T292) phosphorylation after degradation of N-terminally tagged KRAS G12V (DCD23-EGFP-KRAS^[G12V]): concomitant decrease in MEK1 (T292) phosphorylation | lowest concentration giving decrease in luciferase and EGFP signal (FLuc-EGFP-DCD23): ≤ 0.05 µM
